Laboratory results taken from patent US20030176358A1, “METHOD OF TREATING ENVIRONMENTAL STRESS” (priority 1997, published 2003).

Legend:
[1] = tested on: medial aspect of a human forearm exposed to tobacco smoke; experiment: Testing of suppression of oxidation (ultraweak chemiluminescence of the skin); format: in vivo; conditions: 1.0 wt % solution applied on human forearm; tobacco smoke 90 seconds; measured for 30 minutes from 60 seconds after exposure
Text: It is known that a phenomenon called “ultraweak chemiluminescence: CL” occurs on the skin of a living body including a human. This ultraweak chemiluminescence is known to occur in the radiation deactivation process of electrons from the excited state to the ground state.
For example, radicals such as singlet oxygen, excited carbonic acid, excited carbonyl, etc. are known to be this luminescent substance in a living body. Therefore, if this ultraweak chemiluminescence can be monitored, it is possible to adequately identify the oxidation reactions occurring on the human skin.
An 1.0 wt % aqueous solution of each of 1) thiotaurine (from Sogo Pharmaceutical Co., Ltd.), 2) hypotaurine (from Sogo Pharmaceutical Co., Ltd.), 3) glutathione, 4) tannin and 5) vitamin C derivative [L-ascorbic acid phosphate (magnesium)] was applied on the medial aspect of a human forearm. For each of these, a chemiluminescence detector (model OX-7 from Tohoku Electronic Industries Co., Ltd.) whose sample chamber had been modified for a human arm was used to carry out a 30 minute measurement to obtain the blank value of the ultraweak chemiluminescence for each of them. For the control, a solution of 1.0 wt % α-tocopherol was used.
In the same manner as in the aforementioned environmental stress suppression testing which used the corneum moisture content of the skin as the indicator, the medial aspect of a human forearm was brought close to the floating fine particles exposure apparatus shown in FIG. 1 to expose the medial aspect of the forearm, onto which the aforementioned ingredient(s) had been applied, to tobacco smoke for 90 seconds. Sixty seconds after exposure, the ultraweak chemiluminescence of the exposed part was measured for 30 minutes in the same manner as described above. […]

[2] = tested on: medial aspect of a human forearm exposed to tobacco smoke or exhaust gas; experiment: Testing of suppression of a reduction in the corneum moisture content; format: in vivo; conditions: 1.0 wt % aqueous solution applied on human forearm; exposure 10 minutes a day for three months; Corneometer
Method: The floating fine particles exposure apparatus shown in FIG. 1 was used to expose a testee's skin to tobacco (with […] of tar and 2.4 mg of nicotine) smoke or exhaust gas fine particles sampled from an exhaust outlet of an automobile for 10 minutes per day for three months consecutively by bringing the medial aspect of the testee's forearm near the discharge port 14 of the floating fine particles of this exposure apparatus 10 (Exposure apparatus 10 uses a three-mouthed flask 11. That is, one of the mouths of the three-mouthed flask is used as an air inlet 12, another is used as an inlet 13 for floating fine particles such as tobacco smoke, and the third mouth is used as a discharge port 14. Floating fine particles such as tobacco smoke flow in through inlet 13 of the floating fine particles and an air flow which flows in through air inlet 12 is used to discharge them through open discharge port 14 of the floating fine particles. An object which is brought close to this discharge port 14 can be exposed to the floating fine particles such as tobacco smoke. Changes in the corneum moisture content after consecutive exposure to tobacco smoke or exhaust gas fine particles for the aforementioned three months were analyzed by using a Corneometer™ (Courage and Khazaka, Germany). The corneum moisture content is one of the indicators of skin conditions and is known to be an indicator which allows determination of the amount of moisture in the corneum. That is, in the case of rough skin, the corneum moisture content is smaller. A higher value of the corneum moisture content indicates better skin conditions. […] For each of these, the blank value of the corneum moisture content was measured. For the controls, “the group with no drug applied” and “the non-exposure group”, which was not exposed to tobacco smoke or exhaust gas, were used. Using the tobacco smoke exposure apparatus shown in the aforementioned FIG. 1, the medial aspect of the human forearm onto which the aforementioned ingredients had been applied was exposed to tobacco smoke or exhaust gas for 10 minutes a day for three months and the corneum moisture content of that area was investigated.

SMILES | reduction of the ultraweak chemiluminescence (oxidation reactions) on the skin [1] | suppression of the aggravation of skin conditions (reduction in the corneum moisture content) due to exposure to tobacco smoke or exhaust gas [2]
N[C@@H](CCC(=O)N[C@@H](CS)C(=O)NCC(=O)O)C(=O)O [glutathione] | particularly significant | effectively prevented
NCCS(=O)O [hypotaurine] |  | effectively prevented
NCCS(=O)(O)=S [thiotaurine] | particularly significant | effectively prevented
Cc1c(C)c2c(c(C)c1O)CC[C@@](C)(CCC[C@H](C)CCC[C@H](C)CCCC(C)C)O2 [α-tocopherol, reference compound] | could not effectively suppress | could only minimally suppress
CC1=C(/C=C/C(C)=C/C=C/C(C)=C/C=C/C=C(C)/C=C/C=C(C)/C=C/C2=C(C)CCCC2(C)C)C(C)(C)CCC1 [β-carotene, reference compound] |  | could only minimally suppress
